Test results from ChEMBL document CHEMBL1201862, “PubChem BioAssay data set” (2004).
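Method: 48-hour compound exposure of cells in 96-well plates, five concentrations, linear interpolation of endpoints. Abbreviation: GI50, concentration required for 50% inhibition of growth.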 Activity calls are given as the source filed them. Rule as the data show it: active = GI50 up to about 1.1 µM and inactive = higher.

Legend:
Experiment in all cases: NCI tumour cell line growth inhibition, 48 h
A498 = system: A498
A549 = system: A549
CAKI-1 = system: CAKI-1
CCRF-CEM = system: CCRF-CEM
COLO 205 = system: COLO 205
DLD-1 = system: DLD-1
DMS-114 = system: DMS-114
DMS-273 = system: DMS-273
EKVX = system: EKVX
HCC 2998 = system: HCC 2998
HCT-116 = system: HCT-116
HCT-15 = system: HCT-15
HL-60 = system: HL-60
HOP-18 = system: HOP-18
HOP-62 = system: HOP-62
HOP-92 = system: HOP-92
HT-29 = system: HT-29
IGROV-1 = system: IGROV-1
K562 = system: K562
KM-20L2 = system: KM-20L2
KM12 = system: KM12
LOX IMVI = system: LOX IMVI
M19-MEL = system: M19-MEL
MCF7 = system: MCF7
MOLT-4 = system: MOLT-4
Malme-3M = system: Malme-3M
NCI-H226 = system: NCI-H226
NCI-H23 = system: NCI-H23
NCI-H460 = system: NCI-H460
NCI-H522 = system: NCI-H522
NCI/ADR-RES = system: NCI/ADR-RES
OVCAR-3 = system: OVCAR-3
OVCAR-4 = system: OVCAR-4
OVCAR-5 = system: OVCAR-5
OVCAR-8 = system: OVCAR-8
RPMI-8226 = system: RPMI-8226
RXF 393 = system: RXF 393
SF-268 = system: SF-268
SF-295 = system: SF-295
SF-539 = system: SF-539
SK-MEL-28 = system: SK-MEL-28
SK-MEL-2 = system: SK-MEL-2
SK-MEL-5 = system: SK-MEL-5
SK-OV-3 = system: SK-OV-3
SN12C = system: SN12C
SNB-19 = system: SNB-19
SNB-75 = system: SNB-75
SNB-78 = system: SNB-78
SW-620 = system: SW-620
U-251 = system: U-251
UACC-257 = system: UACC-257
UACC-62 = system: UACC-62
UO-31 = system: UO-31
XF498 = system: XF498
786-0 = system: 786-0
ACHN = system: ACHN
DU-145 = system: DU-145
Hs-578T = system: Hs-578T
LXFL 529 = system: LXFL 529
M14 = system: M14
MDA-MB-231 = system: MDA-MB-231
MDA-MB-435 = system: MDA-MB-435
MDA-N = system: MDA-N
PC-3 = system: PC-3
RXF 631 = system: RXF 631
SR = system: SR
T47D = system: T47D
TK-10 = system: TK-10

Structure (SMILES): N/C(=N\O)N/N=C/c1ncccc1O
- GI50 (A498): 35700 nM (inactive)
- GI50 (A549): 10100 nM (inactive)
- GI50 (CAKI-1): 22400 nM (inactive)
- GI50 (CCRF-CEM): 6430 nM (inactive)
- GI50 (COLO 205): 11900 nM (inactive)
- GI50 (DLD-1): 5650 nM (inactive)
- GI50 (DMS-114): 8050 nM (inactive)
- GI50 (DMS-273): 7280 nM (inactive)
- GI50 (EKVX): 22100 nM (inactive)
- GI50 (HCC 2998): 12100 nM (inactive)
- GI50 (HCT-116): 11800 nM (inactive)
- GI50 (HCT-15): 4660 nM
- GI50 (HL-60): 2410 nM (inactive)
- GI50 (HOP-18): 22800 nM (inactive)
- GI50 (HOP-62): 19800 nM (inactive)
- GI50 (HOP-92): 61700 nM (inactive)
- GI50 (HT-29): 13400 nM (inactive)
- GI50 (IGROV-1): 16200 nM (inactive)
- GI50 (K562): 4820 nM (inactive)
- GI50 (KM-20L2): 10400 nM (inactive)
- GI50 (KM12): 5810 nM (inactive)
- GI50 (LOX IMVI): 11200 nM (inactive)
- GI50 (M19-MEL): 19200 nM (inactive)
- GI50 (MCF7): 2070 nM (inactive)
- GI50 (MOLT-4): 11200 nM (inactive)
- GI50 (Malme-3M): 35200 nM (inactive)
- GI50 (NCI-H226): 18700 nM (inactive)
- GI50 (NCI-H23): > 49000 nM (inactive)
- GI50 (NCI-H460): 5960 nM (inactive)
- GI50 (NCI-H522): 15100 nM (inactive)
- GI50 (NCI/ADR-RES): 8730 nM (inactive)
- GI50 (OVCAR-3): 14800 nM (inactive)
- GI50 (OVCAR-4): 18100 nM (inactive)
- GI50 (OVCAR-5): 31500 nM (inactive)
- GI50 (OVCAR-8): 5040 nM (inactive)
- GI50 (RPMI-8226): 1830 nM (inactive)
- GI50 (RXF 393): 38200 nM (inactive)
- GI50 (SF-268): 22700 nM (inactive)
- GI50 (SF-295): 10600 nM (inactive)
- GI50 (SF-539): 19700 nM (inactive)
- GI50 (SK-MEL-28): 45900 nM (inactive)
- GI50 (SK-MEL-2): 31300 nM (inactive)
- GI50 (SK-MEL-5): 11400 nM (inactive)
- GI50 (SK-OV-3): 35900 nM (inactive)
- GI50 (SN12C): 16700 nM (inactive)
- GI50 (SNB-19): 33800 nM (inactive)
- GI50 (SNB-75): 17900 nM (inactive)
- GI50 (SNB-78): > 88500 nM (inactive)
- GI50 (SW-620): 22000 nM (inactive)
- GI50 (U-251): 15500 nM (inactive)
- GI50 (UACC-257): 26100 nM (inactive)
- GI50 (UACC-62): 10300 nM (inactive)
- GI50 (UO-31): 13300 nM (inactive)
- GI50 (XF498): 12400 nM (inactive)

Structure (SMILES): CCCCC(=O)OC[n+]1ccc2c(C)c3[nH]c4ccc(OC)cc4c3c(C)c2c1
- GI50 (786-0): 118 nM (active)
- GI50 (A498): 923 nM (active)
- GI50 (A549): 308 nM (active)
- GI50 (ACHN): 93.8 nM (active)
- GI50 (CAKI-1): 1020 nM (active)
- GI50 (CCRF-CEM): 68.4 nM (active)
- GI50 (COLO 205): 267 nM (active)
- GI50 (DLD-1): 320 nM (active)
- GI50 (DMS-114): 705 nM (active)
- GI50 (DMS-273): 103 nM (active)
- GI50 (DU-145): 760 nM (active)
- GI50 (EKVX): 1140 nM (inactive)
- GI50 (HCC 2998): 512 nM (active)
- GI50 (HCT-116): 71.8 nM (active)
- GI50 (HCT-15): 166 nM
- GI50 (HL-60): 422 nM (active)
- GI50 (HOP-62): 470 nM (active)
- GI50 (HOP-92): 1230 nM (inactive)
- GI50 (HT-29): 243 nM (active)
- GI50 (Hs-578T): 1070 nM (active)
- GI50 (IGROV-1): 284 nM (active)
- GI50 (K562): 70.2 nM (active)
- GI50 (KM-20L2): 377 nM (active)
- GI50 (KM12): 412 nM (active)
- GI50 (LOX IMVI): 271 nM (active)
- GI50 (LXFL 529): 619 nM (active)
- GI50 (M14): 1040 nM (active)
- GI50 (M19-MEL): 684 nM (active)
- GI50 (MCF7): 168 nM (active)
- GI50 (MDA-MB-231): 185 nM (active)
- GI50 (MDA-MB-435): 461 nM (active)
- GI50 (MDA-N): 321 nM (active)
- GI50 (MOLT-4): 39.6 nM (active)
- GI50 (Malme-3M): 1160 nM (inactive)
- GI50 (NCI-H226): 562 nM (active)
- GI50 (NCI-H23): 536 nM (active)
- GI50 (NCI-H460): 73.6 nM (active)
- GI50 (NCI-H522): 695 nM (active)
- GI50 (NCI/ADR-RES): 234 nM (active)
- GI50 (OVCAR-3): 760 nM (active)
- GI50 (OVCAR-4): 796 nM (active)
- GI50 (OVCAR-5): 1670 nM (inactive)
- GI50 (OVCAR-8): 171 nM (active)
- GI50 (PC-3): 308 nM (active)
- GI50 (RPMI-8226): 67.5 nM (active)
- GI50 (RXF 393): 929 nM (active)
- GI50 (RXF 631): 345 nM (active)
- GI50 (SF-268): 344 nM (active)
- GI50 (SF-295): 356 nM (active)
- GI50 (SF-539): 367 nM (active)
- GI50 (SK-MEL-28): 1320 nM (inactive)
- GI50 (SK-MEL-2): 2320 nM (inactive)
- GI50 (SK-MEL-5): 1220 nM (inactive)
- GI50 (SK-OV-3): 656 nM (active)
- GI50 (SN12C): 146 nM (active)
- GI50 (SNB-19): 364 nM (active)
- GI50 (SNB-75): 1070 nM (active)
- GI50 (SNB-78): 1180 nM (inactive)
- GI50 (SR): 50.6 nM (active)
- GI50 (SW-620): 140 nM (active)
- GI50 (T47D): 1030 nM (active)
- GI50 (TK-10): 2640 nM (inactive)
- GI50 (U-251): 348 nM (active)
- GI50 (UACC-257): 2130 nM (inactive)
- GI50 (UACC-62): 979 nM (active)
- GI50 (UO-31): 1040 nM (active)
